The text below walks through data of paper PMC7531004, “Discovery of gramicidin A analogues with altered activities by multidimensional screening of a one-bead-one-compound library” (Nature Communications, 2020).

The test system of series [1] is P388 mouse leukemia cells. The following applies: 92 h. Summed up: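 P388 cells at 1 × 10^4 cells/mL (final) were exposed to library peptides (stocks diluted 250-fold in RPMI1640/10% FBS) for 92 h at 37 °C, 5% CO2. Viable cells were counted by WST-1/1-methoxy PMS (4 h), absorbance 415 nm, and expressed as cell viability (%).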
The nature of series [2]: H+/Na+ transport assay of bead-derived peptides (one-point).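 Also: relative to parent gramicidin A activity set to 1.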 Format: biochemical. The note with it: bead-derived peptide solution, EYPC/EYPG LUVs. Set-up: key: relative activity; mean of two control wells = 1.00. Summed up: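 Values are normalized fluorescence, with Triton X-100 defining 100% and untreated LUVs 0%, and the two control wells averaging 1.00. Vesicles carried 1.0 mM pyranine and included egg yolk phosphatidylglycerol. Peptides were incubated with them 30 min at room temperature.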

Series [3] deals with Streptococcus pyogenes SSI-9. The series is described as follows: Antibacterial activity assay of bead-derived peptides (three concentrations). Format: cell-based. On the set-up: key: +++: inhibition by the 640-fold diluted peptide solution; ++: inhibition by the 160-fold diluted solution; +: inhibition by the 40-fold diluted solution; -: no inhibition. The note with it: S. pyogenes, bead-derived peptide solution, three concentrations. In outline: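 Undiluted, 4-fold and 16-fold DMSO-diluted peptide stocks; S. pyogenes SSI-9, 2 × 10^5 CFU, cation-adjusted MHB (50 mg/L Ca2+, 25 mg/L Mg2+) + 5% laked horse blood; 37 °C, 18 h; readout = cell pellet visible or not.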

Where a SMILES comes first, the peptide text is derived from it. [ ]: non-standard residue; d: D form. The star is where a group is joined. NHCH2CH2OH = OCCN*; For = O=C*

Turning to `CC(C)C[C@@H](NC(=O)[C@H](C)NC(=O)[C@H](NC(=O)[C@H](C)NC(=O)CNC(=O)[C@@H](NC=O)C(C)C)[C@H](C)O)C(=O)N[C@H](C(=O)N[C@@H](C(=O)N[C@@H](Cc1c[nH]c2ccccc12)C(=O)N[C@@H](C(=O)N[C@@H](Cc1c[nH]c2ccccc12)C(=O)N[C@H](CC(C)C)C(=O)N[C@@H](Cc1c[nH]c2ccccc12)C(=O)N[C@H](CC(C)C)C(=O)N[C@@H](Cc1c[nH]c2ccccc12)C(=O)NCCO)C(C)C)C(C)C)C(C)C` [compound 9112] (For-VGA[dT]A[dL]V[dV]W[dV]W[dL]W[dL]W-NHCH2CH2OH), the cell viability/% in series [1] is 72.6%. Further, the “H+/Na+ transport activity normalized against the value of 1 (1.00)” value (“H+/Na+ transport activity normalized” below) in series [2] was 1.10. The antibacterial activity entry in series [3] is recorded as “-”.
In the case of `CC(C)C[C@@H](NC(=O)[C@H](C)NC(=O)[C@H](NC(=O)[C@H](C)NC(=O)CNC(=O)[C@@H](NC=O)C(C)C)[C@H](C)O)C(=O)N[C@H](C(=O)N[C@H](CC(C)C)C(=O)N[C@@H](Cc1c[nH]c2ccccc12)C(=O)N[C@H](CC(C)C)C(=O)N[C@@H](Cc1c[nH]c2ccccc12)C(=O)N[C@@H](C(=O)N[C@@H](Cc1c[nH]c2ccccc12)C(=O)N[C@@H](C(=O)N[C@@H](Cc1c[nH]c2ccccc12)C(=O)NCCO)C(C)C)C(C)C)C(C)C` [compound 9125] (For-VGA[dT]A[dL]V[dL]W[dL]W[dV]W[dV]W-NHCH2CH2OH), the cell viability/% in series [1] is given as 44.2%. For the same compound, the “H+/Na+ transport activity normalized” value in series [2] stood at 1.04. Further, the antibacterial activity entry in series [3] was “-”.
On the same counts, the results for `CC(C)C[C@@H](NC(=O)[C@H](C)NC(=O)[C@H](NC(=O)[C@H](C)NC(=O)CNC(=O)[C@@H](NC=O)C(C)C)[C@H](C)O)C(=O)N[C@H](C(=O)N[C@H](CC(C)C)C(=O)N[C@@H](Cc1c[nH]c2ccccc12)C(=O)N[C@@H](C(=O)N[C@@H](Cc1c[nH]c2ccccc12)C(=O)N[C@@H](C(=O)N[C@@H](Cc1c[nH]c2ccccc12)C(=O)N[C@H](CC(C)C)C(=O)N[C@@H](Cc1c[nH]c2ccccc12)C(=O)NCCO)C(C)C)C(C)C)C(C)C` [compound 9145] (For-VGA[dT]A[dL]V[dL]W[dV]W[dV]W[dL]W-NHCH2CH2OH) are 70.9%, 1.03 and “-”.
In the same order, the values of `CC(C)C[C@@H](NC(=O)[C@H](C)NC(=O)[C@H](NC(=O)[C@H](C)NC(=O)CNC(=O)[C@@H](NC=O)C(C)C)C(C)C)C(=O)N[C@H](C(=O)N[C@@H](C(=O)N[C@@H](Cc1c[nH]c2ccccc12)C(=O)N[C@@H](C(=O)N[C@@H](Cc1c[nH]c2ccccc12)C(=O)N[C@@H](C(=O)N[C@@H](Cc1c[nH]c2ccccc12)C(=O)N[C@H](CC(C)C)C(=O)N[C@@H](Cc1c[nH]c2ccccc12)C(=O)NCCO)C(C)C)C(C)C)C(C)C)C(C)C` [compound 9192] (For-VGA[dV]A[dL]V[dV]W[dV]W[dV]W[dL]W-NHCH2CH2OH) are 100.0%, 1.07 and “-”.
With `CC(C)C[C@@H](NC(=O)[C@H](C)NC(=O)CNC(=O)[C@@H](NC=O)C(C)C)C(=O)N[C@@H](C)C(=O)N[C@@H](C(=O)N[C@H](C(=O)N[C@@H](C(=O)N[C@@H](Cc1c[nH]c2ccccc12)C(=O)N[C@@H](C(=O)N[C@@H](Cc1c[nH]c2ccccc12)C(=O)N[C@@H](C(=O)N[C@@H](Cc1c[nH]c2ccccc12)C(=O)N[C@H](CC(C)C)C(=O)N[C@@H](Cc1c[nH]c2ccccc12)C(=O)NCCO)C(C)C)C(C)C)C(C)C)C(C)C)C(C)C` [compound 9223] (For-VGA[dL]A[dV]V[dV]W[dV]W[dV]W[dL]W-NHCH2CH2OH), the cell viability/% in series [1] turned out to be 100.0%. Also, the “H+/Na+ transport activity normalized” value in series [2] was 1.03. Moreover, in series [3], the antibacterial activity entry is “+”.
